Measurements as given in ChEMBL document CHEMBL1127998, “Conformationally constrained analogues of diacylglycerol. 9.1 the effect of side-chain orientation on the protein kinase C (PK-C) binding affinity of -lactones” (Bioorg Med Chem Lett, 1994).

Assay: Displacement of [3H-20]-phorbol-12-13-dibutyrate from protein kinase C (alpha, beta, gamma) of mouse brain
Assay type: tissue-based

Row | Structure (SMILES) | Ki [nM]
1 | CCCCCCCCCCCCC/C=C1/C(=O)O[C@@H](CO)[C@@H]1OC(C)=O | 600
2 | CCCCCCCCCCCCCC(=O)O[C@@H]1CC(=O)O[C@H]1CO | 2500
3 | CCCCCCCCCCCCCC(=O)O[C@@H]1CCC(=O)O[C@H]1CO | 2800
4 | CCCCCCCCCCCCC/C=C1\C(=O)O[C@@H](CO)[C@@H]1OC(C)=O | 200
